Like-named read-outs stand apart in the source and are kept apart here. Numbered stars: 1 amine (or outer) side, 2 acyl side, 3 side chain; on linkers, the order of the positions; unused ones are H or OH. Bridge positions count the residues as written; N and C are the ends. Square brackets hold non-standard residues; d marks the D form. Peptide text beside a SMILES is read from it. I, II: the chains in the order shown. Actinocin(9to1) = Cc1c2oc3c(C)ccc(C(=O)[*:1])c3nc-2c(C(=O)[*:2])c(N)c1=O; NMeV = CN[C@H](C(=O)O)C(C)C; Sar = CNCC(=O)O

Series [1] is described as follows: Dark toxicity (MTT assay, without illumination). The series is classed as cell-based. Particulars: human; MCF-7 cells, tested in dark; read-out: TC50 (toxicity concentration 50%), dark toxicity. On the technique in general: Tetrazolium assays rely on reduction of a dye to a coloured formazan, in cell work by metabolically active cells.
Description: (§1) Different experiments were conducted and described below: • MCF7 cells were treated with 2µM of TP2Py or TP3Bzim and exposed to illumination (Fig.9A); • HeLa cells were treated with 2µM of TP2Py or TP3Bzim and exposed to illumination (Fig.9B); • MCF7 cells were treated with TP2Py, 40 min illumination (black circles) or without illumination (white circles) (Fig.9C) • HeLa cells were treated with TP2Py [30 min illumination (black circles) or without illumination (white circles)] or TP3Bzim [15 min illumination (black triangles) or without illumination (white triangles)]
(§2) For each experiment, the source of excitation was a Mercury lamp (130W; 380-600nm) with an excitation filter centered at 452nm (± 45 nm), irradiance, 60mW/cm^2.
(§3) First, the experiment was calibrated by determining the time of illumination exposure which leads to the toxicity 50%, for a given concentration of TPA (2 µM) and for an irradiance of 60mW/cm^2. […] This characteristic time was then used for the plots shown in Fig. 9C and 9D which represent the cell viability as a function of TPA concentration (in HeLa and MCF-7 cells, respectively).
In series [2] the test system is MCF-7 cells. As to the kind of experiment: FITC-conjugated Annexin V staining, flow cytometric analysis (apoptosis). Particulars: proapoptotic controls, no illumination; ActD 1µg/mL; CPT 10µM for 2.5 hours. It is filed as cell-based. As for the experimental part: MCF-7 cells were plated in 12-well plates (2.10^5 cells/well) and incubated with 2µM of TP2Py for 2h at 37°C. Under specific conditions (see Fig. 12), cells were further incubated with NAC (1mM) for 30 min, Bapta-AM (20µM) for 3h, or CsA (10µM) for 1h at 37°C. After a time illumination of either 30 or 60 min at […] (Mercury lamp (130W; 380-600nm) + excitation filter centered at 452nm (± 45nm)), cells were gently scraped and pooled with medium floating cells. Cells were individualized in PBS-EDTA (10mM) and stained as described by the manufacturer (Roche, Germany). Briefly, the cell pellet was re-suspended in 500µl Annexin V-HEPES solution (10 mM HEPES-NaOH, pH 7.4, 140mM NaCl, 5mM CaCl2) and incubated on ice for 30 min in the dark. Cells were then washed in ice-cold HEPES buffer before analysis. Fluorescence signals of fluorescently labelled (FITC) Annexin V and TP2Py were measured by a FACSCalibur flow cytometer (Becton-Dickinson, Sunnyvale, CA, USA) using FL1 and FL2 detectors, respectively.
Different experiments are summarized below: • MCF-7 cells treated with 2µM TP2Py for 2 hours and then stained with FITC-conjugated Annexin V immediately (Fig.12A) without light exposure; • MCF-7 cells treated with 2µM TP2Py for 2 hours and then stained with FITC-conjugated Annexin V after a time illumination (Exc, 452 nm) of 30 min (Fig.12B); • MCF-7 cells treated with 2µM TP2Py for 2 hours and then stained with FITC-conjugated Annexin V after a time illumination (Exc, 452 nm) of 60 min (Fig.12C); • control MCF-7 cells treated with DMSO (1%) only and illuminated for 30 min before Annexin V staining (Fig.12D); • control MCF-7 cells treated with 1µg/mL actinomycin D (ActD), no illumination before Annexin V staining (Fig.12E); • control MCF-7 cells treated with camptothecin (CPT, 10µM)) (Fig.12F) for 2.5 hours, no illumination before Annexin V staining; • MCF-7 cells treated during 2 hours with 2µM TP2Py and 10µM cyclosporine A (CsA) and illuminated for 30 min before Annexin V staining (Fig.12G); • MCF-7 cells treated during 2 hours with 2µM TP2Py and 1 mM N-Acetyl cysteine (NAC) and illuminated for 30 min before Annexin V staining (Fig.12H); and • MCF-7 cells treated during 2 hours with 2µM TP2Py and 20µM Bapta-am (Fig.12I) and illuminated for 30 min before Annexin V staining.
The horizontal (FL1-H) and vertical (FL2-H) axes correspond to the fluorescence signal of Annexin V and TP2Py, respectively. The percentage of population with a high mean fluorescence signal is indicated in the corresponding quadrant (top right or bottom right in the presence or absence of TP2Py, respectively).

The conditions of series [3]: 532 or 665-nm line laser sources; cited from earlier work.
The conditions of series [4]: cited from earlier work.
The conditions of series [5]: at 630 nm; cited from earlier work.
The conditions of series [6]: in water up to 10 µM; cited from earlier work.
The test system of series [7] is DNA. To be noted: b156 attributes 634 nm to DNA-bound TP2Py in vitro (Allains et al. 2007); cited from earlier work.
Series [8] concerns HeLa cells. As to the kind of experiment: Cytophototoxicity by MTT assay under illumination. The series is classed as cell-based. Particulars: irradiance 60mW/cm^2.
Description: as §1, §2, §3
The subject of series [9] is HeLa cells.
Description: as §1, §2, §3
Series [10] concerns living MCF-7 cells. As to the kind of experiment: One-photon confocal fluorescence microscopy, photo-induced nuclear translocation and membrane blebbing. To be noted: 2µM, 2 hours, confocal, λexc 458 nm (Fig. 5). It is filed as cell-based. As for the experimental part: One-photon epifluorescence and confocal images were obtained using a SP2 confocal microscope (Leica MicroSystem) equipped with an incubation chamber (37°C, CO2 5%). Excitation and emission filters for epifluorescence were 450-490 nm and 515-700 nm, respectively. A continuous laser line (458 nm) was used for excitation in the confocal mode.
The photo-induced nuclear translocation and membrane blebbing were next assessed using confocal fluorescence microscopy [λexc = 458 nm; emission slit settings: 560-720nm and 530-690nm for TP2Py and TP3Bzim, respectively] under experimental conditions similar to those described in experiment 1 for epifluorescence experiments. The corresponding transmission images illustrating the concomitant membrane blebbing are shown below the confocal fluorescence images. Living MCF7 cells were incubated with 2µM TP3Bzim or TP2Py for 2 hours before observation. As shown in Fig. 5A (TP2Py) and in Fig. 5B (TP3BZim), the results obtained with confocal imaging were similar to those obtained with epifluorescence imaging (experiment 1), with however, some discrepancies in the time courses of event appearance, most likely due to the power of the excitation source which is different between epifluorescence and confocal experiments (see below). […] Based on both criteria (re-localization of the fluorescence signal and the formation of blebs), the deduced fluences were 22 and 40 J/cm^2 for TP2Py and TP3Bzim, respectively. […]
The TP2Py compound at a concentration of 2 µM was first incubated with living MCF-7 cells for 2 hours and then observed with confocal microscope with varying illumination power of the laser source [λ=458 nm; emission slit setting: 560-720 nm]. […] For each condition, the fluorescence intensity in ROIs corresponding to the nucleus was plotted as a function of time (the initial time value, t = 0, represents the first observation) (FIG.7C). Using integration time based on tmax values, light dose values, determined from experiments performed at irradiance of 5.6 or 30 mW/cm^2, were consistent (27.6 and 27 J/cm^2 respectively). These values are in accordance with the above-mentioned value for TP2Py (fluence, 22 J/cm^2 in Fig. 5).
Living MCF-7 cells were treated with varying concentrations of TP2Py for two hours (2µM; 0.2µM and 0.02µM) and observed with a confocal microscope [λexc = 458nm; irradiance 30mW/cm^2, emission slit setting: 560-720nm.] (FIG 8A: 2µM; FIG 8B: 0.2µM; FIGBC: 0.02µM).

With `C[n+]1ccccc1/C=C/c1ccc(N(c2ccccc2)c2ccc(/C=C/c3cccc[n+]3C)cc2)cc1` [Tp2Pyo], the CC50 in [1] came out at 20 µM.

Regarding `CC[C@@]1(O)C(=O)OCc2c1cc1n(c2=O)Cc2cc3ccccc3nc2-1` [camptothecin, reference compound], in series [2], the “HMFI population (Annexin V positive, TP2Py negative)” value stood at 37%.

Turning to `Cc1c2oc3c(C)ccc(C(=O)N[C@@H]4C(=O)N[C@H](C(C)C)C(=O)N5CCC[C@H]5C(=O)N(C)CC(=O)N(C)[C@@H](C(C)C)C(=O)O[C@@H]4C)c3nc-2c(C(=O)N[C@@H]2C(=O)N[C@H](C(C)C)C(=O)N3CCC[C@H]3C(=O)N(C)CC(=O)N(C)[C@@H](C(C)C)C(=O)O[C@@H]2C)c(N)c1=O` [actinomycin D, reference compound] (I: T[dV]P[Sar][NMeV] / II: T[dV]P[Sar][NMeV]; ester I:1-I:C, II:1-II:C; linker I:N-II:N via Actinocin(9to1)), the “HMFI population (Annexin V positive, TP2Py negative)” value in [2] came out at 34%.

`CN(C)c1ccc2nc3ccc(=[N+](C)C)cc-3sc2c1` [MB, methylene blue]: the “total fluence or light dose” value in [3] is given as 1.7 J/cm^2.

On to Photofrin®, for which the two-photon cross-section in series [4] (at 800 nm) was 10 GM; in [4] (at 900 nm), 5 GM. Besides, the extinction coefficient in series [5] was 3200 M⁻¹ cm⁻¹.

Take `C=Cc1c(C)c2cc3nc(c(CC(=O)O)c4[nH]c(cc5nc(cc1[nH]2)C(C)=C5CC)c(C)c4C(=O)O)[C@@H](CCC(=O)O)[C@@H]3C` [chlorin e6]: the quantum yield in [6] is 0.008-0.01. Also, in series [4] (at 800 nm), the two-photon cross-section is 29 GM.

`Cn1c(/C=C/c2ccc(N(c3ccccc3)c3ccc(/C=C/c4n(C)c5ccccc5[n+]4C)cc3)cc2)[n+](C)c2ccccc21` [Tp2Bzim]: in [1], the CC50 worked out at 10 µM.

Turning to `Cn1c(/C=C/c2ccc(N(c3ccc(/C=C/c4n(C)c5ccccc5[n+]4C)cc3)c3ccc(/C=C/c4n(C)c5ccccc5[n+]4C)cc3)cc2)[n+](C)c2ccccc21` [TP3Bzim], the “λmax,emission” value in series [7] was 572 nm. Moreover, the “illumination time required for the same TC50 under illumination” value in series [8] (Mercury lamp, filter 452nm) amounted to 15 min. In series [8], this molecule displayed a corresponding light dose of 54 J/cm^2. In addition, in [1], the CC50 is > 30 µM. Also, in series [9], the “dark toxicity (concentration below which negligible)” value was ≥ 50 µM. The “deduced fluence (re-localization of the fluorescence signal and formation of blebs)” value in series [10] came to 40 J/cm^2.

With `CC(=O)Oc1c(I)cc2c(c1I)Oc1c(cc(I)c(OC(C)=O)c1I)C21OC(=O)c2c(Cl)c(Cl)c(Cl)c(Cl)c21` [RBA, Rose Bengal acetate], the “total fluence or light dose” value in series [3] was 1.6 J/cm^2.

`CN(C)c1ccc(C(=C2C=CC(=[N+](C)C)C=C2)c2ccc(N(C)C)cc2)cc1` [CV, crystal violet]: the “total fluence or light dose” value in series [3] was 1.7 J/cm^2.

(Values after EP2711366A1, “Cationic triphenylamine derivatives activable by visible and Infra Red light for inducing and imaging apoptosis in cancer cells” (Institut Curie, priority 2012, dated 2014).)
